Laboratory results reported in ChEMBL document CHEMBL4477227, “Synthesis and antibacterial evaluation of macrocyclic diarylheptanoid derivatives” (Bioorg Med Chem Lett, 2016).
Values after ≈ are worked out from the molar mass of the structure shown.

Columns and labels:
[1] = test system: Burkholderia cepacia; assay: Antibacterial activity against Burkholderia cepacia ATCC 25416 by microbroth dilution method; type: functional
[2] = test system: Pseudomonas aeruginosa; assay: Antibacterial activity against Pseudomonas aeruginosa PAO1 by microbroth dilution method; type: functional
[3] = test system: Staphylococcus aureus; assay: Antibacterial activity against methicillin-resistant Staphylococcus aureus NRS70 by microbroth dilution method; type: functional; conditions: Staphylococcus aureus, NRS70; read-out: MIC
[4] = test system: Escherichia coli; assay: Antibacterial activity against Escherichia coli K-12 by microbroth dilution method; type: functional
[5] = test system: Enterococcus faecalis; assay: Antibacterial activity against Enterococcus faecalis ATCC 33186 by microbroth dilution method; type: functional; conditions: Enterococcus faecalis, ATCC 33186; read-out: MIC
[6] = test system: Mycobacterium tuberculosis; assay: Antitubercular activity against Mycobacterium tuberculosis H37Rv by microbroth dilution method; type: functional; conditions: Mycobacterium tuberculosis, H37Rv; read-out: MIC
[7] = test system: Proteus vulgaris; assay: Antibacterial activity against Proteus vulgaris ATCC 33420 by microbroth dilution method; type: functional
[8] = test system: Bacillus subtilis; assay: Antibacterial activity against Bacillus subtilis ATCC 23857 by microbroth dilution method; type: functional; conditions: Bacillus subtilis, ATCC 23857; read-out: MIC
[9] = test system: Bacillus anthracis; assay: Antibacterial activity against Bacillus anthracis Sterne 34F2 by microbroth dilution method; type: functional; conditions: Bacillus anthracis, Sterne 34F2; read-out: MIC
[10] = test system: Klebsiella pneumoniae; assay: Antibacterial activity against Klebsiella pneumoniae ATCC 33495 by microbroth dilution method; type: functional
[11] = test system: Staphylococcus aureus; assay: Antibacterial activity against methicillin-sensitive Staphylococcus aureus ATCC 29213 by microbroth dilution method; type: functional; conditions: Staphylococcus aureus, ATCC 29213; read-out: MIC
[12] = test system: Streptococcus pneumoniae; assay: Antibacterial activity against Streptococcus pneumoniae R6 by microbroth dilution method; type: functional; conditions: Streptococcus pneumoniae, R6; read-out: MIC
[13] = test system: Escherichia coli; assay: Antibacterial activity against Escherichia coli harboring TolC deletion mutant by microbroth dilution method; type: functional; conditions: Escherichia coli; read-out: MIC
[14] = test system: Proteus mirabilis; assay: Antibacterial activity against Proteus mirabilis ATCC 25933 by microbroth dilution method; type: functional
[15] = test system: Streptococcus pyogenes; assay: Antibacterial activity against Streptococcus pyogenes ATCC 700294 by microbroth dilution method; type: functional; conditions: Streptococcus pyogenes, ATCC 700294; read-out: MIC
[16] = test system: Acinetobacter baumannii; assay: Antibacterial activity against Acinetobacter baumannii ATCC 19606 by microbroth dilution method; type: functional, ATCC 19606 = CIP 70.34 = JCM 6841; conditions: Acinetobacter baumannii, ATCC 19606 = CIP 70.34 = JCM 6841; read-out: MIC

Row | SMILES | MIC [1] [µg/mL] | MIC [2] [µg/mL] | MIC [3] [µg/mL] | MIC [4] [µg/mL] | MIC [5] [µg/mL] | MIC [6] [µg/mL] | MIC [7] [µg/mL] | MIC [8] [µg/mL] | MIC [9] [µg/mL] | MIC [10] [µg/mL] | MIC [11] [µg/mL] | MIC [12] [µg/mL] | MIC [13] [µg/mL] | MIC [14] [µg/mL] | MIC [15] [µg/mL] | MIC [16] [µg/mL]
1 | COc1ccc2cc1Oc1cc(ccc1OC)CCC(OC(=O)NCc1ccccc1)CCCC2 (centres undefined) | > 100 | > 100 | > 100 | > 100 | > 100 | > 100 | > 100 | > 100 | > 100 | > 100 | > 100 | > 100 | > 100 | > 100 | > 100 | > 100
2 | COc1ccc2cc1Oc1cc(ccc1OC)CCC(NC(=O)/C=C/c1ccc(F)cc1)CCCC2 (centres undefined) | > 100 | > 100 | > 100 | > 100 | > 100 | > 100 | > 100 | > 100 | > 100 | > 100 | > 100 | > 100 | > 100 | > 100 | > 100 | > 100
3 | COc1ccc2cc1Oc1cc(ccc1OC)CCC(OC(=O)CCc1ccccc1)CCCC2 (centres undefined) | > 100 | > 100 | > 100 | > 100 | > 100 | > 100 | > 100 | > 100 | > 100 | > 100 | > 100 | > 100 | > 100 | > 100 | > 100 | > 100
4 | COc1ccc2cc1Oc1cc(ccc1OC)CCC(OS(=O)(=O)c1ccc(C)cc1)CCCC2 (centres undefined) | > 100 | > 100 | 100 (≈ 201 µM) | > 100 | 100 (≈ 201 µM) | > 100 | > 100 | > 100 | > 100 | > 100 | > 100 | > 100 | > 100 | > 100 | > 100 | > 100
5 | COc1ccc2cc1Oc1cc(ccc1OC)CCC(NC(=O)NCCc1ccc(F)cc1)CCCC2 (centres undefined) | > 100 | > 100 | > 100 | > 100 | > 100 | > 100 | > 100 | > 100 | > 100 | > 100 | > 100 | > 100 | > 100 | > 100 | > 100 | > 100
6 | COc1ccc2cc1Oc1cc(ccc1OC)CCC(OC(C)=O)CCCC2 (centres undefined) | > 100 | > 100 | > 100 | > 100 | > 100 | > 100 | > 100 | > 100 | > 100 | > 100 | > 100 | > 100 | 12.5 (≈ 32.5 µM) | > 100 | > 100 | > 100
7 | Oc1ccc2cc1Oc1cc(ccc1O)CCC(NCc1ccccc1)CCCC2 (centres undefined) | > 100 | > 100 | > 50 | > 50 | > 50 | 100 (≈ 248 µM) | > 100 | > 50 | > 50 | > 100 | > 50 | > 50 | 50 (≈ 124 µM) | > 100 | > 50 | > 50
8 | COc1ccc2cc1Oc1cc(ccc1OC)CCC(OS(=O)(=O)c1ccc(OC(F)(F)F)cc1)CCCC2 (centres undefined) | > 100 | > 100 | 50 (≈ 88.2 µM) | > 100 | 50 (≈ 88.2 µM) | > 100 | > 100 | > 100 | 100 (≈ 176 µM) | > 100 | > 100 | > 100 | > 100 | > 100 | > 100 | > 100
9 | COc1cc2ccc1Oc1cc(ccc1OC)CCCCC(NCCc1ccc(F)cc1)CC2 (centres undefined) | > 100 | > 100 | 25 (≈ 53.9 µM) | > 100 | 25 (≈ 53.9 µM) | 25 (≈ 53.9 µM) | > 100 | 12.5 (≈ 27 µM) | 50 (≈ 108 µM) | > 100 | 25 (≈ 53.9 µM) | 25 (≈ 53.9 µM) | 25 (≈ 53.9 µM) | > 100 | 50 (≈ 108 µM) | 100 (≈ 216 µM)
10 | COc1ccc2cc1Oc1cc(ccc1OC)CCC(OC(=O)NCCc1ccccc1)CCCC2 (centres undefined) | > 100 | > 100 | > 100 | > 100 | > 100 | > 100 | > 100 | > 100 | > 100 | > 100 | > 100 | > 100 | > 100 | > 100 | > 100 | > 100
11 | COc1ccc2cc1Oc1cc(ccc1OC)CCC(NCCc1ccc(F)cc1)CC2 | > 100 | > 100 | 100 (≈ 230 µM) | > 100 | 100 (≈ 230 µM) | 50 (≈ 115 µM) | > 100 | 50 (≈ 115 µM) | 100 (≈ 230 µM) | > 100 | 50 (≈ 115 µM) | 100 (≈ 230 µM) | 50 (≈ 115 µM) | > 100 | 100 (≈ 230 µM) | 100 (≈ 230 µM)
12 | COc1ccc2cc1Oc1cc(ccc1OC)CCC(NC(=O)NCCc1ccccc1)CCCC2 (centres undefined) | > 100 | > 100 | > 100 | > 100 | > 100 | > 100 | > 100 | > 100 | > 100 | > 100 | > 100 | > 100 | > 100 | > 100 | > 100 | > 100
13 | COc1ccc2cc1Oc1cc(ccc1OC)CCC(OS(C)(=O)=O)CCCC2 (centres undefined) | > 100 | > 100 | > 100 | > 100 | > 100 | > 100 | > 100 | > 100 | > 100 | > 100 | > 100 | > 100 | > 100 | > 100 | > 100 | > 100
14 | COc1ccc2cc1Oc1cc(ccc1OC)CCC(N1CCN(C)CC1)CCCC2 (centres undefined) | > 100 | > 100 | 50 (≈ 118 µM) | > 100 | 100 (≈ 236 µM) | 50 (≈ 118 µM) | > 100 | 50 (≈ 118 µM) | 100 (≈ 236 µM) | > 100 | 100 (≈ 236 µM) | 100 (≈ 236 µM) | 50 (≈ 118 µM) | > 100 | > 100 | 100 (≈ 236 µM)
15 | COc1ccc2cc1Oc1cc(ccc1OC)CCC(NC(=O)CCc1ccccc1)CCCC2 (centres undefined) | > 100 | > 100 | > 100 | > 100 | > 100 | > 100 | > 100 | > 100 | > 100 | > 100 | > 100 | > 100 | > 100 | > 100 | > 100 | > 100
16 | COc1ccc2cc1Oc1cc(ccc1OC)CCC(OC(=O)Cc1ccccc1)CCCC2 (centres undefined) | > 100 | > 100 | > 100 | > 100 | > 100 | > 100 | > 100 | > 100 | > 100 | > 100 | > 100 | > 100 | > 100 | > 100 | > 100 | > 100
17 | COc1ccc2cc1Oc1cc(ccc1OC)CCC(Nc1ccc(Cl)cc1)CCCC2 (centres undefined) | > 100 | > 100 | > 100 | > 100 | > 100 | > 100 | > 100 | > 100 | > 100 | > 100 | > 100 | > 100 | > 100 | > 100 | > 100 | > 100
18 | COc1ccc2cc1Oc1cccc(c1)CCCCC(NCCc1ccc(F)cc1)CC2 (centres undefined) | > 100 | > 100 | 12.5 (≈ 28.8 µM) | > 100 | 12.5 (≈ 28.8 µM) | 25 (≈ 57.7 µM) | > 100 | 6.25 (≈ 14.4 µM) | 25 (≈ 57.7 µM) | > 100 | 25 (≈ 57.7 µM) | 50 (≈ 115 µM) | 12.5 (≈ 28.8 µM) | > 100 | 50 (≈ 115 µM) | 50 (≈ 115 µM)
19 | COc1ccc2cc1Oc1cc(ccc1OC)CCC(OC(=O)Nc1ccc(F)cc1)CCCC2 (centres undefined) | > 100 | > 100 | 25 (≈ 52.1 µM) | > 100 | 50 (≈ 104 µM) | > 100 | > 100 | > 100 | > 100 | > 100 | > 100 | > 100 | > 100 | > 100 | > 100 | > 100
